Measurements from patent US20060228297A1, “Thorium-227 for use in radiotherapy of soft tissue disease” (priority 2003, published 2006).

Legend:
[1] = tested on: patients with breast or prostate cancer; test: Phase I study of ^223Ra, single doses, neutrophil cell fractions (Example 8); type: in vivo, humans; conditions: for Days to nadir (neutrophil cell fraction) / ˜% of baseline at nadir (neutrophil cell fraction): humans
Text: In a phase I study in patients with breast or prostate cancer, dose levels of 37, 74, 130, 170 and 200 kBq/kg of ^223Ra were given as single doses. Neutrophil cell fractions were monitored as a sensitive measure of haematological toxicity.

[2] = tested on: humans; test: Estimate of ^223Ra toxicity from prior art (translated from ^224Ra dog data); conditions: expected for humans, assuming similar haematological toxicity in dogs and humans
Text: Because of the lack of human data on toxicity of radium-223 and radium-224, an assumed radiotoxicity for ^223Ra can be derived as follows, using published data for radium-224 in dogs. The decay series (including the decays of daughter nuclides) of both ^224Ra and ^223Ra causes an emission of four alpha panicles per radium atoms. The total alpha particle doses from ^223Ra and ^224Ra in equilibrium with daughters are approximately 26.3 and 27.1 MeV per transformation respectively and are therefore closely equivalent. The half-lives of ^224Ra is 3.62 days and for ^223Ra it is 11.43 days. This means that per activity unit injected, the skeletal dose from ^223Ra would be approximately 3.1 times that from ^224Ra, taking into account alpha energy and half-life differences, and assuming long-term biological retention of the radionuclide (i.e., the clearance is governed by the physical half-life of the radionuclide). This is a valid assumption because Ra is a Ca analogue and is readily incorporated into the skeleton.
At 350 kBq/kg death, caused by haematological dyscrasia resulting from bone marrow destruction, occurred in some subjects (3 dogs out of 8). It may therefore be assumed that the maximum tolerable dose of ^224Ra is between 120 and 350 kBq/kg in dogs. Translated into ^223Ra, as described above, this would correspond to 39-113 kBq/kg of ^223Ra. […]

[3] = then concentrated in the skeleton or excreted via intestinal and renal routes; cited from earlier work

With `[223Ra]` [^223Ra, radium-223] the “Dose that can be administered and tolerated” value ([1]; human subjects) was “at least 200 kBq/kg”, the “Days to nadir (neutrophil cell fraction)” value ([1]; 37 kBq/kg single dose) was 14 days and the “˜% of baseline at nadir (neutrophil cell fraction)” value ([1]; 37 kBq/kg single dose) was about 60%. The “Days to nadir (neutrophil cell fraction)” value ([1]; 74 kBq/kg single dose) was 14 days, the “˜% of baseline at nadir (neutrophil cell fraction)” value ([1]; 74 kBq/kg single dose) was about 60% and the “Days to nadir (neutrophil cell fraction)” value ([1]; 130 kBq/kg single dose) was 28 days. For the same compound, the “˜% of baseline at nadir (neutrophil cell fraction)” value ([1]; 130 kBq/kg single dose) was about 50%, the “Days to nadir (neutrophil cell fraction)” value ([1]; 170 kBq/kg single dose) was 21 days and the “˜% of baseline at nadir (neutrophil cell fraction)” value ([1]; 170 kBq/kg single dose) was about 40%. The “Days to nadir (neutrophil cell fraction)” value ([1]; 200 kBq/kg single dose) was 21 days, the “˜% of baseline at nadir (neutrophil cell fraction)” value ([1]; 200 kBq/kg single dose) was about 30% and the “Maximum tolerable dose, translated from ^224Ra dog data” value [2] was 39-113 kBq/kg. The Blood clearance [3] was “very rapidly”.
